Test results reported in ChEMBL document CHEMBL5584339, “Design, Synthesis, and Evaluation of the Antitubercular Activity of 5-Phenyl Substituted-5, 6-dihydropyrido[2, 3-d]pyrimidine-4, 7(3H, 8H)-dione Compounds” (J Med Chem, 2024).
Converted amounts (≈) assume the structure as drawn.

What was measured:
[1] = tested on: Mycobacterium tuberculosis; assay: Antitubercular activity against Mycobacterium tuberculosis H37Rv incubated for 7 days by alamar blue assay; assay type: functional; conditions: 168 h, time 7 day
[2] = Cytotoxicity against african green monkey Vero cells incubated for 48 hrs by CCK8 assay; assay type: toxicity, cell-based, Chlorocebus sabaeus
[3] = Selectivity index, ratio of IC50 for african green monkey Vero cells to IC50 for Mycobacterium tuberculosis H37Rv; assay type: toxicity; conditions: read-out: Ratio IC50
[4] = Metabolic stability in mouse liver microsomes assessed as intrinsic clearance per mg protein at 2 uM preincubated for 60 mins followed by NADPH addition and measured upto 60 mins by LC-MS analysis; assay type: ADME, Microsome; conditions: time < 120 min, read-out: CLH
[5] = Metabolic stability in mouse liver microsomes assessed as substrate remaining at 2 uM preincubated for 60 mins followed by NADPH addition and measured upto 60 mins by LC-MS analysis; assay type: ADME, Microsome; conditions: time < 120 min, read-out: Stability
[6] = Metabolic stability in human liver microsomes assessed as intrinsic clearance per mg protein at 2 uM preincubated for 60 mins followed by NADPH addition and measured upto 60 mins by LC-MS analysis; assay type: ADME, Microsome; conditions: time < 120 min, read-out: CLH
[7] = Metabolic stability in mouse liver microsomes assessed as half-life at 2 uM preincubated for 60 mins followed by NADPH addition and measured upto 60 mins by LC-MS analysis; assay type: ADME, Microsome; conditions: time < 120 min
[8] = Metabolic stability in human liver microsomes assessed as half-life at 2 uM preincubated for 60 mins followed by NADPH addition and measured upto 60 mins by LC-MS analysis; assay type: ADME, Microsome; conditions: time < 120 min
[9] = Cytotoxicity against HK-2 cells incubated for 48 hrs by CCK8 assay; assay type: toxicity, cell-based; conditions: human
[10] = Metabolic stability in human liver microsomes assessed as substrate remaining at 2 uM preincubated for 60 mins followed by NADPH addition and measured upto 60 mins by LC-MS analysis; assay type: ADME, Microsome; conditions: time < 120 min, read-out: Stability

Row | SMILES | MIC [1] [µg/mL] | IC50 at 48 h [2] [µg/mL] | selectivity ratio [3] | also measured
1 | CCC[S+]([O-])c1nc2c(c(=O)[nH]1)[C@@H](c1ccc(OC)cc1)CC(=O)N2 (stereo not given in full) | > 32 | – | – | –
2 | COc1ccc(C2CC(=O)Nc3nc(SC(C)C)[nH]c(=O)c32)cc1 (stereo not given) | 2.27 (≈ 6.57 µM) | > 100 | > 44.1 | –
3 | CCCCSc1nc2c(c(=O)[nH]1)C(c1ccc(OC)cc1O)CC(=O)N2 (stereo not given) | 4.65 (≈ 12.4 µM) | 41.2 (≈ 110 µM) | 8.87 | –
4 | CCCCSc1nc2c(c(=O)[nH]1)C(c1ccc(OC)c(O)c1)CC(=O)N2 (stereo not given) | 3.19 (≈ 8.5 µM) | 40.1 (≈ 107 µM) | 12.6 | –
5 | C=CCSc1nc2c(c(=O)[nH]1)C(c1ccc(OC)cc1O)CC(=O)N2 (stereo not given) | 0.99 (≈ 2.75 µM) | > 100 | > 101 | –
6 | CCCSc1nc2c(c(=O)n1C)C(c1ccccc1)CC(=O)N2C (stereo not given) | > 10 | – | – | –
7 | CCCSc1nc2c(c(=O)[nH]1)C(c1ccc(OC)cc1[N+](=O)[O-])CC(=O)N2 (racemic) | 0.12 (≈ 0.307 µM) | > 100 | > 833 | microsomal CLint at 2 µM [4]: 14.2 µL/min/mg; remaining at 1 h, 2 µM [5]: 66.8%; microsomal CLint at 2 µM [6]: 11.2 µL/min/mg; half-life at 2 µM [7]: 1.62 h; half-life at 2 µM [8]: 2.07 h; IC50 at 48 h [9]: > 100 µg/mL; remaining at 1 h, 2 µM [10]: 73.7%
8 | CCCCCCCOc1ccc(C2CC(=O)Nc3nc(SCCC)[nH]c(=O)c32)cc1 (stereo not given) | > 10 | 36.6 (≈ 85.1 µM) | – | –
9 | CCCSc1nc2c(c(=O)[nH]1)C(c1ccc(OC)cc1N)CC(=O)N2 (stereo not given) | > 10 | > 100 | – | –
10 | C=CCSc1nc2c(c(=O)[nH]1)C(c1ccc(OCC)cc1)CC(=O)N2 (stereo not given) | 1 (≈ 2.8 µM) | > 100 | > 500 | –
11 | CCCCSc1nc2c(c(=O)[nH]1)C(c1ccc(OCCC)cc1)CC(=O)N2 (stereo not given) | > 10 | 57 (≈ 147 µM) | – | –
12 | CCCSc1nc2c(c(=O)[nH]1)C(c1ccc(OC)c(OC)c1)CC(=O)N2 (stereo not given) | > 10 | 20.4 (≈ 54.5 µM) | < 2 | –
13 | CCCSc1nc2c(c(=O)[nH]1)C(c1ccc(OCC)cc1)CC(=O)N2 (stereo not given) | 0.35 (≈ 0.974 µM) | 60.1 (≈ 167 µM) | 174 | –
14 | C=CCSc1nc2c(c(=O)[nH]1)C(c1ccc(OC)cc1[N+](=O)[O-])CC(=O)N2 (stereo not given) | 0.5 (≈ 1.29 µM) | > 100 | > 200 | –
15 | CCCSc1nc2c(c(=O)[nH]1)C(c1ccc(OC)cc1O)CC(=O)N2 (stereo not given) | 0.95 (≈ 2.63 µM) | 54.1 (≈ 150 µM) | 56.9 | –
16 | CCCCSc1nc2c(c(=O)[nH]1)C(c1ccc(OC)cc1)CC(=O)N2 (stereo not given) | 0.5 (≈ 1.39 µM) | 46.3 (≈ 129 µM) | 93.1 | –
17 | CCCS(=O)(=O)c1nc2c(c(=O)[nH]1)[C@H](c1ccc(OC)cc1)CC(=O)N2 | > 32 | – | – | –
18 | COc1ccc(C2CC(=O)Nc3nc(SC)[nH]c(=O)c32)c(O)c1 (stereo not given) | > 10 | > 100 | – | –
19 | CCCS(=O)(=O)c1nc2c(c(=O)[nH]1)[C@@H](c1ccc(OC)cc1[N+](=O)[O-])CC(=O)N2 | > 32 | – | – | –
20 | CCCOc1ccc(C2CC(=O)Nc3nc(SCCC)[nH]c(=O)c32)cc1 (stereo not given) | 1 (≈ 2.68 µM) | 12.1 (≈ 32.3 µM) | 12.1 | –
21 | CCCS(=O)(=O)c1nc2c(c(=O)[nH]1)[C@H](c1ccc(OC)cc1[N+](=O)[O-])CC(=O)N2 | > 32 | – | – | –
22 | C=CCSc1nc2c(c(=O)[nH]1)C(c1ccc(OC)cc1)CC(=O)N2 (stereo not given) | 0.5 (≈ 1.46 µM) | 41.1 (≈ 120 µM) | 82.2 | –
23 | CCCSc1nc2c(c(=O)[nH]1)C(c1ccc(OC(C)C)cc1)CC(=O)N2 (stereo not given) | 2.12 (≈ 5.68 µM) | 24.9 (≈ 66.7 µM) | 11.7 | –
24 | COc1ccc(C2CC(=O)Nc3nc(SC)[nH]c(=O)c32)cc1 (stereo not given) | 9.24 (≈ 29.1 µM) | 30.7 (≈ 96.6 µM) | 3.32 | –
